According to PubChem BioAssay AID330 (DTP/NCI, 2004):
Inconclusive results and toxic doses are left out. How the source made its calls: active means survival T/C of 150% or more; inactive means T/C below 125% in these data.

Tested on: P388 leukemia ip, CD2F1 mice, survival T/C
Assay: NCI In Vivo Anticancer Drug Screen. Data for tumor model P388 Leukemia (intraperitoneal) in CD2F1 (CDF1) mice
Conditions: endpoint: median survival time, higher = longer survival
Outline: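 Mice carrying the transplanted tumor received test compound or vehicle. Survival was recorded in each group, and the value is the treated-group measurement divided by that of the vehicle-treated control group.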

[1] = dose: 25.0 mg/kg/injection, schedule: Q01DX005 (ip), vehicle: saline with Tween-80
[2] = dose: 50.0 mg/kg/injection, schedule: Q01DX005 (ip), vehicle: saline with Tween-80
[3] = dose: 100.0 mg/kg/injection, schedule: Q01DX005 (ip), vehicle: saline with Tween-80
[4] = dose: 200.0 mg/kg/injection, schedule: Q01DX005 (ip), vehicle: saline with Tween-80

Measured: T/C

Cc1ccc2c(c1)nc(-c1ccccn1)n2CCc1ccncc1
inactive: dose: 50.0 mg/kg/injection, schedule: Q01DX001 (ip), vehicle: saline with Tween-80 95 % of control | dose: 100.0 mg/kg/injection, schedule: Q01DX001 (ip), vehicle: saline with Tween-80 96 % of control | dose: 200.0 mg/kg/injection, schedule: Q01DX001 (ip), vehicle: saline with Tween-80 101 % of control

CCOc1c(Br)cc(/C=C(\C)[N+](=O)[O-])cc1OC
inactive: dose: 60.0 mg/kg/injection, schedule: Q01DX005 (ip), vehicle: saline with Tween-80 112 % of control | dose: 120.0 mg/kg/injection, schedule: Q01DX005 (ip), vehicle: saline with Tween-80 106 % of control

COc1ccc(Cc2noc(=O)[nH]2)cc1
inactive: dose: 50.0 mg/kg/injection, schedule: Q01DX009 (ip), vehicle: saline with Tween-80 104 % of control | dose: 100.0 mg/kg/injection, schedule: Q01DX009 (ip), vehicle: saline with Tween-80 104 % of control | dose: 200.0 mg/kg/injection, schedule: Q01DX009 (ip), vehicle: saline with Tween-80 106 % of control

CCOC(=O)NC(=S)C1=C(N2CCOCC2)CCC1
inactive: dose: 50.0 mg/kg/injection, schedule: Q01DX009 (ip), vehicle: Klucel (hydroxypropylcellulose) (HPC) 106 % of control | dose: 100.0 mg/kg/injection, schedule: Q01DX009 (ip), vehicle: Klucel (hydroxypropylcellulose) (HPC) 122 % of control | dose: 200.0 mg/kg/injection, schedule: Q01DX009 (ip), vehicle: Klucel (hydroxypropylcellulose) (HPC) 97 % of control

COc1ccc(CCNC2=CC(=O)CC2)cc1OC
inactive: [1] 92 % of control | [2] 89 % of control | [3] 92 % of control

COC(=O)/C=C/C(=O)NC(O)C(Cl)(Cl)Cl (centres undefined)
inactive: [2] 102 % of control | [3] 107 % of control | [4] 102 % of control

C/C(=N\NC(=S)Nc1ccc(S(N)(=O)=O)cc1)c1ccccn1
inactive: dose: 12.5 mg/kg/injection, schedule: Q01DX005 (ip), vehicle: saline with Tween-80 94 % of control | [1] 108 % of control | [2] 119 % of control | [3] 96 % of control

O=c1oc2cc(Cl)cnc2n1-c1ccccc1
inactive: dose: 100.0 mg/kg/injection, schedule: Q01DX001 (ip), vehicle: Klucel (hydroxypropylcellulose) (HPC) 96 % of control | dose: 200.0 mg/kg/injection, schedule: Q01DX001 (ip), vehicle: Klucel (hydroxypropylcellulose) (HPC) 98 % of control | dose: 400.0 mg/kg/injection, schedule: Q01DX001 (ip), vehicle: Klucel (hydroxypropylcellulose) (HPC) 90 % of control

CC(=O)OC1CC2CCC3C(CCC4(C)C3CC([N+]3(C)CCCCC3)C4OC(C)=O)C2(C)CC1[N+]1(C)CCCCC1 (centres undefined)
inactive: dose: 12.5 micrograms/kg/injection, schedule: Q01DX009 (ip), vehicle: saline 103 % of control | dose: 25.0 micrograms/kg/injection, schedule: Q01DX009 (ip), vehicle: saline 100 % of control | dose: 50.0 micrograms/kg/injection, schedule: Q01DX009 (ip), vehicle: saline 103 % of control

CCC(Oc1c2ccoc2c(OC)c2oc(=O)cc(O)c12)C(=O)O (centres undefined)
inactive: [2] 108 % of control | [3] 95 % of control | [4] 100 % of control

CC(=O)c1c(-c2nc(=S)[nH]c(C)c2C(C)=O)nc(=S)[nH]c1C
inactive: dose: 60.0 mg/kg/injection, schedule: Q01DX005 (ip), vehicle: Klucel (hydroxypropylcellulose) (HPC) 106 % of control | dose: 120.0 mg/kg/injection, schedule: Q01DX005 (ip), vehicle: Klucel (hydroxypropylcellulose) (HPC) 100 % of control | dose: 240.0 mg/kg/injection, schedule: Q01DX005 (ip), vehicle: Klucel (hydroxypropylcellulose) (HPC) 90 % of control

c1ccc(SCCOCCOCCSc2ccccn2)nc1
inactive: dose: 25.0 mg/kg/injection, schedule: Q01DX005 (ip), vehicle: Klucel (hydroxypropylcellulose) (HPC) 103 % of control | dose: 50.0 mg/kg/injection, schedule: Q01DX005 (ip), vehicle: Klucel (hydroxypropylcellulose) (HPC) 108 % of control | dose: 100.0 mg/kg/injection, schedule: Q01DX005 (ip), vehicle: Klucel (hydroxypropylcellulose) (HPC) 111 % of control

O=Cc1ccc(O)c(CN2CCCCC2)c1
inactive: dose: 6.25 mg/kg/injection, schedule: Q04DX003 (ip), vehicle: saline 109 % of control | dose: 12.5 mg/kg/injection, schedule: Q04DX003 (ip), vehicle: saline 100 % of control | dose: 25.0 mg/kg/injection, schedule: Q04DX003 (ip), vehicle: saline 100 % of control

CCCCCCCCSCc1ccc(Nc2ccc(Nc3ccc(CSCCCCCCCC)cc3)cc2)cc1
inactive: dose: 50.0 mg/kg/injection, schedule: Q01DX006 (ip), vehicle: other 102 % of control | dose: 50.0 mg/kg/injection, schedule: Q01DX009 (ip), vehicle: acetone 101 % of control | dose: 100.0 mg/kg/injection, schedule: Q01DX006 (ip), vehicle: other 116 % of control | dose: 100.0 mg/kg/injection, schedule: Q01DX009 (ip), vehicle: acetone 107 % of control | dose: 200.0 mg/kg/injection, schedule: Q01DX006 (ip), vehicle: other 117 % of control
